Patent US20230322797A1, “SOLID FORMS, PHARMACEUTICAL COMPOSITIONS AND PREPARATION OF HETEROAROMATIC MACROCYCLIC ETHER COMPOUNDS” (Nuvalent, Inc., priority 2022, published 2023)
Counter-ions that a name gives are not always drawn.

What was measured:
[1] = Solubility of salts of Compound 2 and free base in distilled water (gravimetric); format: physicochemical; details: for Solubility (mg solid/mL water): distilled water, RT, stirred 3 days, gravimetric; for XRPD Pattern Recovered: solid recovered after slurry in water at RT
Method: Solubility of the scaled-up salts of Compound 2 and free base Compound 2 was assessed in distilled water at RT. Approximately 30 mg of solid was weighed directly into 2 mL vials, and a 6 mm stir bar was added to each vial. Water was then incrementally added to the vials (starting with 1 vol.) and the resulting slurries were left to stir for 10-15 min prior to the next addition. As all solids remained in slurries upon the addition of 1 mL of water, the gravimetric method was adopted, and the vials were stirred at RT for 3 days before centrifuging. Supernatant solutions were recovered and evaporated to dryness at 50° C. in atmosphere on a hot plate, then placed at 50° C. under vacuum (˜−29 inHg) for 3 h before final weighing.

[2] = Solid-form stability study of salts of Compound 2 (75% RH, 40° C., 7 days); format: physicochemical; details: for Purity (%) After / Purity (%) Before: HPLC; for Purity (%) After / XRPD Pattern After: after 7 days at 75% RH and 40° C.; for Purity (%) Before: before stress test
Method: Solid-form stability studies were completed by weighing approximately 30 mg each of Form A of the camsylate, esylate, mesylate, and sulfate salts of Compound 2 into 4 mL vials and covering with a Kimwipe. The vials were placed inside a humidity chamber set to 75% RH at 40° C. for 7 days. The HPLC and XRPD data was collected to confirm the purity and identity of the solid forms. The four salts were physically and chemically stable. No decrease in purity (i.e. less than 0.1%) or form change was observed after a seven-day stress test at 75% relative humidity (RH) and 40° C. (Table 5).

[3] = Salt screen of Compound 2: XRPD after drying and humidification; details: vacuum 50° C. at least 3 h, >95% RH overnight
[4] = Solubility of Compound 1 salts in organic solvents (solvent volumes); format: physicochemical
Method: Preparation of Additional Salts: Additional salts shown in the Table below were prepared using procedures similar to those described above and the solubility of the resulting salts of Compound 1 was evaluated.

[5] = Stability study of Compound 1 drug substance; format: physicochemical; details: 1 month / three months (Example 10)
Method: A stability study is conducted for Compound 1. Samples were stored at: 30° C.±2° C./65%±5% Relative Humidity (RH), or 40° C.±2° C./75%±5% RH. At regular intervals (e.g., initial, 1, 3, 6, 9, 12, 18, 24, and 36 months), tests are performed for description, assay, related substances, water content, polymorphic form, and chiral purity.
A stability study was conducted for Compound 1 crystalline free base Form 2. Samples were stored at: (1) 30° C.±2° C./65%±5% Relative Humidity (RH), with data collected at 0, 1, 3, 6, 9, and 12 months; and (2) 40° C.±2° C./75%±5% RH, with data collected at 0, 1, 3, and 6 months. At the indicated time points, tests were performed for description, assay, related substances, water content, polymorphic form, and chiral purity.

[6] = Desolvation experiments on solvated forms (heating, then XRPD); format: physicochemical
Method: Desolvation experiments were carried out on the solvated forms identified during the polymorph screen to establish the relationships between the forms. Samples were heated to a temperature at which the solids fully desolvated (based on TG/DSC characterisation data) and where exothermic events were observed after desolvation a separate experiment was carried out to assess for additional solid forms.

[7] = target temperature 150 °C, after desolvation
[8] = target temperature 200 °C, after exothermic event

Row | Solubility, Volume (at 10-20° C.) ([4]; 2-MeTHF) | Solubility, Volume (at 10-20° C.) ([4]; Acetone) | Solubility, Volume (at 10-20° C.) ([4]; CPME) | Solubility, Volume (at 10-20° C.) ([4]; EtOAc) | Solubility, Volume (at 10-20° C.) ([4]; IPA) | Solubility, Volume (at 10-20° C.) ([4]; IPAc) | Solubility, Volume (at 10-20° C.) ([4]; MeCN) | Solubility, Volume (at 10-20° C.) ([4]; THF) | Solubility, Volume (at 10-20° C.) ([4]; Toluene) | Solubility, Volume (at 10-20° C.) ([4]; t-AmOH) | Solid Form post-heating [6, 7] | SMILES | other results
1 | – | – | – | – | – | – | – | – | – | – | Form 2 | CCn1nc(Cl)c2c1-c1cnc(N)c(c1)O[C@H](C)c1cc(F)ccc1-c1nn(C)cc1C2 [Form 13] | –
2 | – | – | – | – | – | – | – | – | – | – | Amorphous | CCn1nc(Cl)c2c1-c1cnc(N)c(c1)O[C@H](C)c1cc(F)ccc1-c1nn(C)cc1C2 [Form 15] | Solid Form post-heating [6, 8]: Form 2
3 | 8-10 V | 8-10 V | 50-60 V | 80-90 V | 8-9 V | 90-100 V | 150-200 V | 3-4 V | >400 V | 22-24 V | – | CCn1nc(Cl)c2c1-c1cnc(N)c(c1)O[C@H](C)c1cc(F)ccc1-c1nn(C)cc1C2 [Fumaric Acid salt] | –
4 | >160 V | 58-60 V | >500 V | >100 V | 140-150 V | >400 V | >400 V | >160 V | >400 V | >400 V | – | CCn1nc(Cl)c2c1-c1cnc(N)c(c1)O[C@H](C)c1cc(F)ccc1-c1nn(C)cc1C2 [H3PO4 salt] | –
5 | >400 V | 22-24 V | >500 V | >400 V | 8-10 V | >400 V | 8-10 V | 300-400 V | >400 V | 18-20 V | – | CCn1nc(Cl)c2c1-c1cnc(N)c(c1)O[C@H](C)c1cc(F)ccc1-c1nn(C)cc1C2 [HCl salt] | –
6 | 4-6 V | 2-4 V | 60-70 V | 12-14 V | 18-20 V | 52-56 V | 30-32 V | 8-10 V | >400 V | 18-20 V | – | CCn1nc(Cl)c2c1-c1cnc(N)c(c1)O[C@H](C)c1cc(F)ccc1-c1nn(C)cc1C2 [L-Tartaric Acid Salt] | –
7 | >400 V | 56-60 V | >400 V | 300-400 V | 56-60 V | 260-300 V | 6-8 V | 60-100 V | >400 V | 340-360 V | – | CCn1nc(Cl)c2c1-c1cnc(N)c(c1)O[C@H](C)c1cc(F)ccc1-c1nn(C)cc1C2 [MSA salt] | –
8 | 50-60 V | 2-4 V | 220 V | 20-30 V | 70-80 V | 20-30 V | 16-20 V | 2-4 V | >400 V | 6-8 V | – | CCn1nc(Cl)c2c1-c1cnc(N)c(c1)O[C@H](C)c1cc(F)ccc1-c1nn(C)cc1C2 [Maleic Acid salt] | –
9 | 18-20 V | 26-28 V | 100-140 V | 26-30 V | 300-400 V | 56-60 V | 90-100 V | 4-6 V | 320-360 V | >400 V | – | CCn1nc(Cl)c2c1-c1cnc(N)c(c1)O[C@H](C)c1cc(F)ccc1-c1nn(C)cc1C2 [Salicylic acid salt] | –
10 | >400 V | 10-12 V | >400 V | 18-20 V | >400 V | 18-20 V | 8-10 V | 280-300 V | >400 V | >400 V | – | CCn1nc(Cl)c2c1-c1cnc(N)c(c1)O[C@H](C)c1cc(F)ccc1-c1nn(C)cc1C2 [TsOH salt] | –

More lines, now with the values behind:

Row | SMILES | Solubility, Volume (at 10-20° C.) ([4]; 2-MeTHF) | Solubility, Volume (at 10-20° C.) ([4]; Acetone) | Solubility, Volume (at 10-20° C.) ([4]; CPME) | Solubility, Volume (at 10-20° C.) ([4]; EtOAc) | Solubility, Volume (at 10-20° C.) ([4]; IPA) | Solubility, Volume (at 10-20° C.) ([4]; IPAc) | Solubility, Volume (at 10-20° C.) ([4]; MeCN) | Solubility, Volume (at 10-20° C.) ([4]; THF) | Solubility, Volume (at 10-20° C.) ([4]; Toluene) | Solubility, Volume (at 10-20° C.) ([4]; t-AmOH) | Solid Form post-heating [6, 7] | other results
11 | CCn1cc(Cc2cn(C)nc2-c2ccc(F)cc2[C@@H](C)Oc2cc(Br)cnc2N)c(Cl)n1 [Camsylate Salt] | – | – | – | – | – | – | – | – | – | – | – | Solubility (mg solid/mL water) [1]: <3 mg solid/mL water; XRPD Pattern Recovered [1]: Form A; Purity (%) After [2]: 99.65%; Purity (%) Before [2]: 99.59%; XRPD Pattern After [2]: Form A; Stability of crystalline salt pattern to drying and humidification [3]: stable to drying and humidification
12 | CCn1nc(Cl)c2c1-c1cnc(N)c(c1)O[C@H](C)c1cc(F)ccc1-c1nn(C)cc1C2 [Citric Acid salt] | 8-10 V | 6-8 V | 330 V | >400 V | 24-28 V | >400 V | 300-400 V | 10-12 V | >400 V | 86-90 V | – | –
13 | CCn1nc(Cl)c2c1-c1cnc(N)c(c1)O[C@H](C)c1cc(F)ccc1-c1nn(C)cc1C2 [Compound 1] | – | – | – | – | – | – | – | – | – | – | – | Chemical and physical stability (description, assay, related substances, water content, polymorphic form, chiral purity) ([5]; 30° C.±2° C./65%±5% RH): No meaningful changes; Chemical and physical stability (description, assay, related substances, water content, polymorphic form, chiral purity) ([5]; 40° C.±2° C./75%±5% RH): No meaningful changes
14 | CCn1cc(Cc2cn(C)nc2-c2ccc(F)cc2[C@@H](C)Oc2cc(Br)cnc2N)c(Cl)n1 [Esylate Salt] | – | – | – | – | – | – | – | – | – | – | – | Solubility (mg solid/mL water) [1]: 5 mg solid/mL water; XRPD Pattern Recovered [1]: Form A; Purity (%) After [2]: 99.75%; Purity (%) Before [2]: 99.75%; XRPD Pattern After [2]: Form A; Stability of crystalline salt pattern to drying and humidification [3]: stable to drying and humidification
15 | CCn1nc(Cl)c2c1-c1cnc(N)c(c1)O[C@H](C)c1cc(F)ccc1-c1nn(C)cc1C2 [Form 1] | – | – | – | – | – | – | – | – | – | – | Form 2 | Solid Form post-heating ([6]; target temperature 105 °C, after desolvation): Form 2
16 | CCn1nc(Cl)c2c1-c1cnc(N)c(c1)O[C@H](C)c1cc(F)ccc1-c1nn(C)cc1C2 [Form 4] | – | – | – | – | – | – | – | – | – | – | – | Solid Form post-heating ([6]; target temperature 132 °C, after desolvation): Form 2; Solid Form post-heating ([6]; target temperature 170 °C, after exothermic event): Form 2
17 | CCn1nc(Cl)c2c1-c1cnc(N)c(c1)O[C@H](C)c1cc(F)ccc1-c1nn(C)cc1C2 [Form 7] | – | – | – | – | – | – | – | – | – | – | – | Solid Form post-heating ([6]; target temperature 134 °C, after desolvation): Form 2
18 | CCn1nc(Cl)c2c1-c1cnc(N)c(c1)O[C@H](C)c1cc(F)ccc1-c1nn(C)cc1C2 [Form 8] | – | – | – | – | – | – | – | – | – | – | Form 2 | Solid Form post-heating [6, 8]: Form 2
19 | CCn1nc(Cl)c2c1-c1cnc(N)c(c1)O[C@H](C)c1cc(F)ccc1-c1nn(C)cc1C2 [Form 9] | – | – | – | – | – | – | – | – | – | – | Form 2 | –
20 | CCn1nc(Cl)c2c1-c1cnc(N)c(c1)O[C@H](C)c1cc(F)ccc1-c1nn(C)cc1C2 [Form 10] | – | – | – | – | – | – | – | – | – | – | Form 2 | –
21 | CCn1nc(Cl)c2c1-c1cnc(N)c(c1)O[C@H](C)c1cc(F)ccc1-c1nn(C)cc1C2 [Form 11] | – | – | – | – | – | – | – | – | – | – | – | Solid Form post-heating ([6]; target temperature 130 °C, after desolvation): Form 2; Solid Form post-heating [6, 8]: Form 2
22 | CCn1nc(Cl)c2c1-c1cnc(N)c(c1)O[C@H](C)c1cc(F)ccc1-c1nn(C)cc1C2 [Form 12] | – | – | – | – | – | – | – | – | – | – | Form 2 | –
23 | CCn1cc(Cc2cn(C)nc2-c2ccc(F)cc2[C@@H](C)Oc2cc(Br)cnc2N)c(Cl)n1 [Free Base] | – | – | – | – | – | – | – | – | – | – | – | Solubility (mg solid/mL water) [1]: <3 mg solid/mL water; XRPD Pattern Recovered [1]: Amorphous
